{
  "source": "patent US20140128402A1",
  "about": "“PHARMACEUTICAL COMBINATION” (IPCA Laboratories Limited, priority 2011, published 2014)",
  "type_in_all_cases": "in vivo, Wistar rats",
  "key": {"[1]": {"test_system": "STZ-induced diabetic rats", "experiment": "Study No 1: blood glucose in STZ-induced diabetic rats (HCQ with sitagliptin)", "method": "(§1) In this experiment 48 Wistar rats weighing 130-150 g of either sex were divided randomly into 8 groups consisting of 6 rats each. The study drugs suspended in vehicle [0.1% w/v suspension of Tween 80 and carboxymethylcellulose (CMC) in water] were administered for orally for 21 days. Group 1 (normal vehicle control) consisted of normal rats that neither received streptozotocin nor any test drug; Group 2 served as streptozotocin induced diabetic control (Diabetes was induced in rats by single administration of streptozotocin (60 mg/kg/i.p) dissolved in 0.1 M-citrate buffer, pH 4.5). Forty-eight hours later, blood samples were collected and glucose levels were determined to confirm the development of diabetes.\nBlood glucose level was measured in normal and experimental rats at 1st, 7th, 14th and 21st day of administration. For other biochemical parameters i.e. Insulin, HbA1c, Triglycerides, Total Cholesterol, HDL, SGOT, SGPT, Total Protein, Albumin, Creatinine and Urea Blood samples were collected 1 h after the last dose administration from 18 h fasted rats through the retro-orbital plexus under chloroform anesthesia and analyzed using autoanalyzer (Microlab 2000). Other parameters like body weight, food intake and water intake were evaluated weekly till day 21st."}, "[2]": {"test_system": "STZ-induced diabetic rats", "experiment": "Study No 1: body weight, food intake and water intake in STZ-induced diabetic rats", "settings": "for AVERAGE WATER INTAKE: oral", "method": "as §1, with “diabetes. […] Group 3 was diabetic rats treated with dose equivalent to human therapeutic dose of sitagliptin (STG) (11 mg/kg); Group 4 was diabetic rats treated with dose equivalent to human therapeutic dose of Hydroxychloroquine (HCQ) (46 mg/kg), Group 5 was diabetic rats treated with combination of HCQ 46 mg/kg and STG11 mg/kg; […] For other biochemical parameters i.e. […] Other parameters like body weight, food intake and water intake were evaluated weekly till day 21st.” for “diabetes.”"}, "[3]": {"test_system": "STZ-induced diabetic rats", "experiment": "Study No 1: biochemical parameters in STZ-induced diabetic rats", "settings": "after 21 days", "method": "as §1, with “diabetes. […] Group 3 was diabetic rats treated with dose equivalent to human therapeutic dose of sitagliptin (STG) (11 mg/kg); Group 4 was diabetic rats treated with dose equivalent to human therapeutic dose of Hydroxychloroquine (HCQ) (46 mg/kg), Group 5 was diabetic rats treated with combination of HCQ 46 mg/kg and STG11 mg/kg; […] For other biochemical parameters i.e. […] Other parameters like body weight, food intake and water intake were evaluated weekly till day 21st.” for “diabetes.”"}, "[4]": {"settings": "subtherapeutic dose: STG 5.5, HCQ 23, STG+HCQ 5.5+23 mg/kg/day oral"}, "[5]": {"settings": "therapeutic dose: STG 11, HCQ 46, STG+HCQ 11+46 mg/kg/day oral"}},
  "data": [
    {"smiles": "N[C@@H](CC(=O)N1CCn2c(nnc2C(F)(F)F)C1)Cc1cc(F)c(F)cc1F", "note": "[STG, Sitagliptin]", "values": [
      {"measurement": "Plasma glucose concentration", "setting": "[1]; 1st day, subtherapeutic dose: STG 5.5, HCQ 23, STG+HCQ 5.5+23 mg/kg oral", "result": "267.17 ± 12.83", "unit": "mg/dL"},
      {"measurement": "Plasma glucose concentration", "setting": "[1]; 1st day, therapeutic dose: STG 11, HCQ 46, STG+HCQ 11+46 mg/kg oral", "result": "258.33 ± 11.57", "unit": "mg/dL"},
      {"measurement": "Plasma glucose concentration", "setting": "[1]; 7th day, subtherapeutic dose: STG 5.5, HCQ 23, STG+HCQ 5.5+23 mg/kg oral", "result": "261.83 ± 11.58", "unit": "mg/dL"},
      {"measurement": "Plasma glucose concentration", "setting": "[1]; 7th day, therapeutic dose: STG 11, HCQ 46, STG+HCQ 11+46 mg/kg oral", "result": "225.00 ± 12.63", "unit": "mg/dL"},
      {"measurement": "Plasma glucose concentration", "setting": "[1]; 14th day, subtherapeutic dose: STG 5.5, HCQ 23, STG+HCQ 5.5+23 mg/kg oral", "result": "227.83 ± 13.95", "unit": "mg/dL"},
      {"measurement": "Plasma glucose concentration", "setting": "[1]; 14th day, therapeutic dose: STG 11, HCQ 46, STG+HCQ 11+46 mg/kg oral, 46 mg/kg", "result": "206.17 ± 10.26", "unit": "mg/dL"},
      {"measurement": "Plasma glucose concentration", "setting": "[1]; 14th day, therapeutic dose: STG 11, HCQ 46, STG+HCQ 11+46 mg/kg oral, listed as sitagliptin, 46 mg/kg", "result": "significant improvement"},
      {"measurement": "Plasma glucose concentration", "setting": "[1]; 21st day, subtherapeutic dose: STG 5.5, HCQ 23, STG+HCQ 5.5+23 mg/kg oral", "result": "200.83 ± 4.71", "unit": "mg/dL"},
      {"measurement": "Plasma glucose concentration", "setting": "[1]; 21st day, therapeutic dose: STG 11, HCQ 46, STG+HCQ 11+46 mg/kg oral", "result": "156.50 ± 12.85", "unit": "mg/dL"},
      {"measurement": "AVERAGE WATER INTAKE", "setting": "[2]; Day 1, Sub-The (subtherapeutic dose)", "result": 28.33, "unit": "mL"},
      {"measurement": "AVERAGE WATER INTAKE", "setting": "[2]; Day 1, The (therapeutic dose)", "result": 30.67, "unit": "mL"},
      {"measurement": "Body Weight", "setting": "[2]; Day 1, subtherapeutic dose: STG 5.5, HCQ 23, STG+HCQ 5.5+23 mg/kg oral", "result": "145.83 ± 12.61", "unit": "g"},
      {"measurement": "AVERAGE FOOD INTAKE", "setting": "[2]; Day 1, subtherapeutic dose: STG 5.5, HCQ 23, combination 5.5+23 mg/kg oral", "result": 11.50, "unit": "g"},
      {"measurement": "Body Weight", "setting": "[2]; Day 1, therapeutic dose: STG 11, HCQ 46, STG+HCQ 11+46 mg/kg oral", "result": "137.83 ± 6.49", "unit": "g"},
      {"measurement": "AVERAGE FOOD INTAKE", "setting": "[2]; Day 1, therapeutic dose: STG 11, HCQ 46, combination 11+46 mg/kg oral", "result": 12.17, "unit": "g"},
      {"measurement": "AVERAGE WATER INTAKE", "setting": "[2]; Day 7, Sub-The (subtherapeutic dose)", "result": 27.17, "unit": "mL"},
      {"measurement": "AVERAGE WATER INTAKE", "setting": "[2]; Day 7, The (therapeutic dose)", "result": 29.00, "unit": "mL"},
      {"measurement": "Body Weight", "setting": "[2]; Day 7, subtherapeutic dose: STG 5.5, HCQ 23, STG+HCQ 5.5+23 mg/kg oral", "result": "147.83 ± 12.37", "unit": "g"},
      {"measurement": "AVERAGE FOOD INTAKE", "setting": "[2]; Day 7, subtherapeutic dose: STG 5.5, HCQ 23, combination 5.5+23 mg/kg oral", "result": 11.83, "unit": "g"},
      {"measurement": "Body Weight", "setting": "[2]; Day 7, therapeutic dose: STG 11, HCQ 46, STG+HCQ 11+46 mg/kg oral", "result": "142.67 ± 7.45", "unit": "g"},
      {"measurement": "AVERAGE FOOD INTAKE", "setting": "[2]; Day 7, therapeutic dose: STG 11, HCQ 46, combination 11+46 mg/kg oral", "result": 10.67, "unit": "g"},
      {"measurement": "AVERAGE WATER INTAKE", "setting": "[2]; Day 14, Sub-The (subtherapeutic dose)", "result": 26.67, "unit": "mL"},
      {"measurement": "AVERAGE WATER INTAKE", "setting": "[2]; Day 14, The (therapeutic dose)", "result": 28.50, "unit": "mL"},
      {"measurement": "Body Weight", "setting": "[2]; Day 14, subtherapeutic dose: STG 5.5, HCQ 23, STG+HCQ 5.5+23 mg/kg oral", "result": "150.50 ± 12.31", "unit": "g"},
      {"measurement": "AVERAGE FOOD INTAKE", "setting": "[2]; Day 14, subtherapeutic dose: STG 5.5, HCQ 23, combination 5.5+23 mg/kg oral", "result": 10.83, "unit": "g"},
      {"measurement": "Body Weight", "setting": "[2]; Day 14, therapeutic dose: STG 11, HCQ 46, STG+HCQ 11+46 mg/kg oral", "result": "149.00 ± 7.46", "unit": "g"},
      {"measurement": "AVERAGE FOOD INTAKE", "setting": "[2]; Day 14, therapeutic dose: STG 11, HCQ 46, combination 11+46 mg/kg oral", "result": 9.83, "unit": "g"},
      {"measurement": "AVERAGE WATER INTAKE", "setting": "[2]; Day 21, Sub-The (subtherapeutic dose)", "result": 27.00, "unit": "mL"},
      {"measurement": "AVERAGE WATER INTAKE", "setting": "[2]; Day 21, The (therapeutic dose)", "result": 27.17, "unit": "mL"},
      {"measurement": "AVERAGE FOOD INTAKE", "setting": "[2]; Day 21, subtherapeutic dose: STG 5.5, HCQ 23, combination 5.5+23 mg/kg oral", "result": 10.33, "unit": "g"},
      {"measurement": "AVERAGE FOOD INTAKE", "setting": "[2]; Day 21, therapeutic dose: STG 11, HCQ 46, combination 11+46 mg/kg oral", "result": 8.83, "unit": "g"},
      {"measurement": "Albumin", "setting": "[3]; [4]", "result": 2.20, "unit": "g/dL"},
      {"measurement": "Creatinine", "setting": "[3]; [4]", "result": 1.76},
      {"measurement": "HDL-C", "setting": "[3]; [4]", "result": 23.92, "unit": "mg/dL"},
      {"measurement": "HbA1c", "setting": "[3]; [4]", "result": 5.12},
      {"measurement": "Insulin (serum)", "setting": "[3]; [4]", "result": 4.43},
      {"measurement": "SGOT", "setting": "[3]; [4]", "result": 54.02},
      {"measurement": "SGPT", "setting": "[3]; [4]", "result": 54.64},
      {"measurement": "TC", "setting": "[3]; [4]", "result": 156.69, "unit": "mg/dL"},
      {"measurement": "TG", "setting": "[3]; [4]", "result": 121.91, "unit": "mg/dL"},
      {"measurement": "Total Protein", "setting": "[3]; [4]", "result": 4.15, "unit": "g/dL"},
      {"measurement": "Urea", "setting": "[3]; [4]", "result": 45.05, "unit": "mg/dL"},
      {"measurement": "Albumin", "setting": "[3]; [5]", "result": 2.63, "unit": "g/dL"},
      {"measurement": "Creatinine", "setting": "[3]; [5]", "result": 1.63},
      {"measurement": "HDL-C", "setting": "[3]; [5]", "result": 26.04, "unit": "mg/dL"},
      {"measurement": "HbA1c", "setting": "[3]; [5]", "result": 5.04},
      {"measurement": "Insulin (serum)", "setting": "[3]; [5]", "result": 6.11},
      {"measurement": "SGOT", "setting": "[3]; [5]", "result": 51.47},
      {"measurement": "SGPT", "setting": "[3]; [5]", "result": 55.47},
      {"measurement": "TC", "setting": "[3]; [5]", "result": 146.92, "unit": "mg/dL"},
      {"measurement": "TG", "setting": "[3]; [5]", "result": 116.48, "unit": "mg/dL"},
      {"measurement": "Total Protein", "setting": "[3]; [5]", "result": 4.83, "unit": "g/dL"},
      {"measurement": "Urea", "setting": "[3]; [5]", "result": 23.57, "unit": "mg/dL"}
    ]}
  ]
}
